The record followed here is article PMC8016666, “A novel combination therapy targeting ubiquitin-specific protease 5 in MYCN-driven neuroblastoma” (Oncogene, 2021).

What is called Kd is a measure of binding affinity in units of concentration. A higher Kd goes with lower affinity.

This test addresses T1, USP5 (Homo sapiens, UniProt P45974).
T1 construct: full-length
T1 sequence (P45974 2-858): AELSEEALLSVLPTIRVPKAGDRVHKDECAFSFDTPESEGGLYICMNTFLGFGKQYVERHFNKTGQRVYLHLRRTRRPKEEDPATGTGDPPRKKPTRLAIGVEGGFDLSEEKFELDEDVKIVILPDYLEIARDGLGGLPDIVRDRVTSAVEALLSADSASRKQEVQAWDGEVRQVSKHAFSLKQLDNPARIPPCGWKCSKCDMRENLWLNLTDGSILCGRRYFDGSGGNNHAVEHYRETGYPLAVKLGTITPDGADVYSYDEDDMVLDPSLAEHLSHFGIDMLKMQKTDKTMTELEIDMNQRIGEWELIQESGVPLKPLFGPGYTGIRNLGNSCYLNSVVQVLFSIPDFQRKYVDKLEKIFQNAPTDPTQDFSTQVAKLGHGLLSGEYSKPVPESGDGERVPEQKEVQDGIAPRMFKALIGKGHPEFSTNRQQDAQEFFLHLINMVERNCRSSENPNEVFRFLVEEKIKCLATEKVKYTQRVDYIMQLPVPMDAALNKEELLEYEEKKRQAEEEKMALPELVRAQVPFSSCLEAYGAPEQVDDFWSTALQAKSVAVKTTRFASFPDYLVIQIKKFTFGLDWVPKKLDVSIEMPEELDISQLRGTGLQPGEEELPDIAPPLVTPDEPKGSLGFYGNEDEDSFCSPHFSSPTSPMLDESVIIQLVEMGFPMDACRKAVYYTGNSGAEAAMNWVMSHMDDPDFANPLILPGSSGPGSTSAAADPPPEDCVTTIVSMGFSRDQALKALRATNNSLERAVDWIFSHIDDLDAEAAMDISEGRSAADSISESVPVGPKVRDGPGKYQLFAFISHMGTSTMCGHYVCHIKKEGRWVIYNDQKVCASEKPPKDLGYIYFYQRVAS
The experiment in a line: microscale thermophoresis with purified labelled USP5. The format is binding. For orientation: Microscale thermophoresis detects binding through changes in fluorescence in a small temperature gradient.

As to `O=C(CCCCCCC(=O)Nc1ccccc1)NO` [SAHA], binding was characterised by a dissociation constant (Kd) of 2760 nM.
